ChEMBL document CHEMBL5120775, “Boosting the Discovery of Small Molecule Inhibitors of Glucose-6-Phosphate Dehydrogenase for the Treatment of Cancer, Infectious Diseases, and Inflammation” (J Med Chem, 2022)

What was measured:
[1] = Binding affinity to Plasmodium falciparum GluPho
[2] = Selectivity index, ratio of Ki for human G6PD to Ki for Plasmodium falciparum GluPho
[3] = biological target: T1, Glucose-6-phosphate 1-dehydrogenase (Homo sapiens, UniProt P11413); assay: Inhibition of human C-terminal His tagged G6PD overexpressed in Escherichia coli BL21
[4] = biological target: T1, Glucose-6-phosphate 1-dehydrogenase; assay: Inhibition of human G6PD
[5] = Inhibition of Plasmodium falciparum recombinant GluPho measured for 20 to 30 mins by multiwell plate reader method
[6] = Inhibition of Trypanosoma cruzi G6PD expressed in Escherichia coli BL21 (DE3) by G6PDH-diaphorase-resorufin coupled assay
[7] = Inhibition of Trypanosoma cruzi G6PD
Plasmodium falciparum = assay: Antimalarial activity against Plasmodium falciparum 3D7 incubated for 48 hrs followed by [3H]-hypoxanthine addition measured after 24 hrs by microdilution method; assay type: functional, organism-based
[8] = Antiproliferative activity against human MCF10AT1 cells; assay type: functional, cell-based
[9] = Inhibition of Plasmodium falciparum GluPho
[10] = biological target: T1, Glucose-6-phosphate 1-dehydrogenase; assay: Binding affinity to human G6PD
[11] = biological target: T1, Glucose-6-phosphate 1-dehydrogenase; assay: Binding affinity to G6PD (unknown origin) assessed as Gibbs free energy
[12] = Inhibition of Plasmodium vivax G6PD
Trypanosoma cruzi = assay: Trypanocidal activity against Trypanosoma cruzi assessed as lethal dose; assay type: functional; settings: read-out: LD50 (the source's name)

T1 sequence (P11413 whole entry): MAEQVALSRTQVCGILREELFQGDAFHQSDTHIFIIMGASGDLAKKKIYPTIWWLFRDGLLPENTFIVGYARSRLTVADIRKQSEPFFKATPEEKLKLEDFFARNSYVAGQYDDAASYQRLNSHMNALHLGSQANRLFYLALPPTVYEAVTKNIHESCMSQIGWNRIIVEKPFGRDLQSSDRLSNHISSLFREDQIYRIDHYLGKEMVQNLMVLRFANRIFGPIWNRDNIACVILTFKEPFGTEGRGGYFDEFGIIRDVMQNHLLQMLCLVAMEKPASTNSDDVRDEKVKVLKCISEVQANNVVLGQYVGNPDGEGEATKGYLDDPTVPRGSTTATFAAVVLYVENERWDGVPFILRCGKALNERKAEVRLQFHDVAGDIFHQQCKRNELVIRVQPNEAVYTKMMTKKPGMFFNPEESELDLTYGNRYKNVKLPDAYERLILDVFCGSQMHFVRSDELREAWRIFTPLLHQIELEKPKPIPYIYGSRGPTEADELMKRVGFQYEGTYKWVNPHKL

CO[C@H]1O[C@H](CSCCNC(=N)N)[C@@H](O)[C@H](O)[C@H]1O
Ki [1]: 45.6 µM
Ratio Ki [2]: > 4.4

O=c1c2ccccc2nc(-c2cccnc2)n1-c1ccc(Br)cn1
IC50 [3]: 2600 nM
IC50 [4]: 2600 nM
IC50 [5]: 4.5 µM

COc1ccc(-n2c(-c3cccnc3)nc3ccccc3c2=O)cc1
IC50 [3]: 3000 nM
IC50 [4]: 3000 nM
IC50 [5]: 7.6 µM

COc1ccc(-c2ccc(C=C3C(=O)NC(=O)NC3=O)o2)c([N+](=O)[O-])c1
IC50 [5]: 4.6 µM

Cc1ccc(Nc2ncc3c(n2)CCCC3=O)cc1
IC50 [6]: 480 nM
IC50 [7]: 10 µM

Cc1ccc(C)c(S(=O)(=O)Nc2ccc(O)c3ccccc23)c1
IC50 (Plasmodium falciparum): 5.3 µM
IC50 [8]: 25 µM
IC50 [3]: 200 nM
IC50 [5]: 22 µM

O=S(=O)(Nc1ccc(O)c2ccccc12)c1ccc(F)cc1
IC50 (Plasmodium falciparum): 3.9 µM
IC50 [5]: 30 µM

CO[C@H]1O[C@H](CS(=O)(=O)CCC#N)[C@@H](O)[C@H](O)[C@H]1O
Ki [1]: 68.8 µM
Ratio Ki [2]: > 2.9

CO[C@H]1O[C@H](CSCCN)[C@@H](O)[C@H](O)[C@H]1O
Ratio Ki [2]: 26

COc1cc(/C=C2\C(=O)N(c3nc(-c4ccc(Cl)cc4)cs3)N=C2C)cc(OC)c1OC
IC50 [9]: 1700 nM
IC50 [3]: 600 nM

CO[C@H]1O[C@H](CS(=O)(=O)CCN)[C@@H](O)[C@H](O)[C@H]1O
Ki [10]: > 400 µM
Ki [1]: 22.8 µM
Ratio Ki [2]: > 18

O=C(Cn1ccnc1[N+](=O)[O-])NCc1ccccc1 [BENZNIDAZOLE]
IC50 [7]: 8.5 µM

CCCCCCCn1cnc2sc(C(N)=O)c(C)c2c1=O
IC50 [6]: 4900 nM

CO[C@H]1O[C@H](CSCCC#N)[C@@H](O)[C@H](O)[C@H]1O
Ki [1]: 259 µM
Ratio Ki [2]: > 0.8

O=C(Nc1ccc(Cl)cc1)Nc1ncc([N+](=O)[O-])s1
deltaG [11]: -6.91 kcal/mol

CC(C)(C)c1ccc(Oc2ccc(N)cn2)cc1 [LIMANTRAFIN]
IC50 (Plasmodium falciparum): 0.97 µM
IC50 [5]: 1.5 µM

CCN1CCC[C@@H]1CNC(=O)c1ccc2c(c1)NC(=O)/C(=C/c1ccccc1F)S2
IC50 (Plasmodium falciparum): 2.3 µM

CCN1CCC[C@@H]1CNC(=O)c1ccc2c(c1)NC(=O)c1cccc(C)c1S2
IC50 [9]: 190 nM
IC50 [12]: 15.3 µM

O=C1Nc2ccc(Br)cc2/C1=C1/SC(=S)N(C(Cc2ccccc2)C(=O)O)C1=O (stereo unspecified)
IC50 [3]: 3100 nM

O=C1NC(=O)N(c2ccc(O)cc2)C(=O)/C1=C\c1ccc(-c2ccccc2[N+](=O)[O-])o1
IC50 [5]: 19.9 µM

CO[C@H]1O[C@H](CSCCCN)[C@@H](O)[C@H](O)[C@H]1O
Ki [1]: 289 µM
Ratio Ki [2]: 0.4

COc1ccc(N2CCN(c3nc(C)c4c(n3)CCCC4=O)CC2)cc1
IC50 [6]: 610 nM

Cc1cccc(N2C(=O)NC(=O)/C(=C/c3ccc(-c4ccc([N+](=O)[O-])cc4C)o3)C2=O)c1
IC50 [5]: 5.1 µM

Cc1cccc(Nc2ncc3c(n2)CCCC3=O)c1
IC50 [7]: 0.63 µM

C[C@]12CC[C@H](O)C[C@@H]1CC[C@@H]1[C@@H]2CC[C@]2(C)C(=O)[C@H](Br)C[C@@H]12 [16.ALPHA.-BROMOEPIANDROSTERONE]
IC50 [7]: 0.086 µM
LC50 (Trypanosoma cruzi): 12 µM

CO[C@H]1O[C@H](CS(=O)(=O)CCCN)[C@@H](O)[C@H](O)[C@H]1O
Ki [1]: 34.4 µM
Ratio Ki [2]: 1

CO[C@H]1O[C@H](CS(=O)(=O)CCNC(=N)N)[C@@H](O)[C@H](O)[C@H]1O
Ki [10]: 16.8 µM
Ki [1]: 32.4 µM
Ratio Ki [2]: 0.5

CO[C@H]1O[C@H](CS(=O)(=O)CCCNC(=N)N)[C@@H](O)[C@H](O)[C@H]1O
Ki [1]: 42.9 µM
Ratio Ki [2]: 0.5
